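1) Cells in 96-well plates. 2) Compound, 48 h, 5 concentrations. 3) Linear interpolation between surrounding doses. 4) Unreached endpoint = highest concentration. GI50 = concentration required for 50% inhibition of growth.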 The source made the active and inactive calls. No stated cut-off is given here; in the data, active = GI50 up to about 1.1 µM and inactive = higher.

Among the test systems are 786-0; A549; BT-549; CCRF-CEM; COLO 205; DU-145; HCT-15; IGROV-1; MCF7; Malme-3M; RPMI-8226; RXF 393; SF-539; SK-MEL-28; SK-OV-3; SN12C; T47D; TK-10; U-251; UACC-62.
Holding throughout (assay): growth of human tumour cells (NCI), 48 h

Turning to `CC(=O)CC(OC(C)=O)C1=CCC2C(CC1C)OC(=O)C2C` (stereo not given), the GI50 with 786-0 was > 100 µM (inactive); in the assay on A549, > 100 µM (inactive); in the assay with BT-549, 75 µM (inactive); in the assay on CCRF-CEM it was 64.9 µM (inactive); with COLO 205, > 100 µM (inactive); with DU-145, > 100 µM (inactive). For the same compound, the GI50 with HCT-15 is > 100 µM; with IGROV-1 it was > 100 µM (inactive); in the assay on MCF7, > 100 µM (inactive); in the assay on Malme-3M it was > 100 µM (inactive); with RPMI-8226, > 100 µM (inactive); in the assay on RXF 393, > 100 µM (inactive). In addition, the GI50 with SF-539, in the assay on SK-MEL-28, with SK-OV-3, in the assay with SN12C, with T47D and in the assay on TK-10 was > 100 µM (inactive) each time. Besides, the GI50 in the assay on U-251 and in the assay with UACC-62 was > 100 µM (inactive) in each case.
Consider `Cc1ccc2nc3n(c2c1)C(c1c(F)cccc1F)SC3` (stereo not given), for which the GI50 in the assay with 786-0, with A549, with BT-549, in the assay with CCRF-CEM, in the assay on COLO 205 and in the assay on DU-145 was > 100 µM (inactive) in each case. For the same compound, the GI50 is > 100 µM in the assay on HCT-15; > 100 µM (inactive) with IGROV-1; 47.1 µM (inactive) in the assay with MCF7; > 100 µM (inactive) in the assay on Malme-3M; > 100 µM (inactive) with RPMI-8226; > 100 µM (inactive) with RXF 393. The GI50 in the assay on SF-539, in the assay on SK-MEL-28, with SK-OV-3, in the assay with SN12C, in the assay on T47D and in the assay with TK-10 was > 100 µM (inactive) in each case. Besides, the GI50 in the assay on U-251 and in the assay with UACC-62 was > 100 µM (inactive) each time.
Consider `NC1=Nc2ccccc2Sc2cccc(F)c21`, for which the GI50 with 786-0 was > 100 µM (inactive); in the assay with A549 it was 57.5 µM (inactive); in the assay on BT-549 it was 95.3 µM (inactive); in the assay on CCRF-CEM it was 25.2 µM (inactive); with COLO 205, 61.7 µM (inactive); in the assay with DU-145, > 100 µM (inactive). Besides, the GI50 with HCT-15 was > 100 µM; in the assay on IGROV-1, > 100 µM (inactive); in the assay with MCF7 it was 65 µM (inactive); in the assay with Malme-3M, > 100 µM (inactive); with RPMI-8226, 36 µM (inactive); with RXF 393, 24.9 µM (inactive). Moreover, the GI50 in the assay on SF-539 was > 100 µM (inactive); in the assay with SK-MEL-28 it was > 100 µM (inactive); in the assay on SK-OV-3 it was > 100 µM (inactive); in the assay on SN12C it was > 100 µM (inactive); in the assay with T47D, 62.2 µM (inactive); in the assay on TK-10 it was > 100 µM (inactive). In addition, the GI50 was 85.9 µM (inactive) in the assay on U-251 and 60.3 µM (inactive) with UACC-62.
Regarding `O=c1cc(CNC2CC3CCC2C3)[nH]c(=O)[nH]1` (stereo not given), the GI50 with 786-0, with A549, in the assay on BT-549, with CCRF-CEM, in the assay on COLO 205 and in the assay on DU-145 was > 100 µM (inactive) in each case. In addition, the GI50 in the assay on HCT-15 was > 100 µM; with IGROV-1, > 100 µM (inactive); with MCF7, > 100 µM (inactive); with Malme-3M it was > 100 µM (inactive); in the assay with RPMI-8226 it was > 100 µM (inactive); with RXF 393 it was > 100 µM (inactive). The GI50 in the assay on SF-539, with SK-MEL-28, with SK-OV-3, in the assay with SN12C, in the assay with T47D and with TK-10 was > 100 µM (inactive) each time. Besides, the GI50 in the assay with U-251 and in the assay with UACC-62 was > 100 µM (inactive) each time.
Consider `COc1ccc(C(=O)N/N=C2\C(=O)c3c(C)cc(C)cc3CC2(C)C)cc1`, for which the GI50 in the assay with 786-0 is 18.6 µM (inactive); in the assay on A549 it was 19.4 µM (inactive); with BT-549, 18.6 µM (inactive); in the assay on CCRF-CEM, 24.3 µM (inactive); in the assay on COLO 205 it was 21.8 µM (inactive); in the assay on DU-145, 24.2 µM (inactive). The GI50 in the assay with HCT-15 is 22.8 µM; in the assay on IGROV-1 it was 16.1 µM (inactive); in the assay with MCF7, 16.6 µM (inactive); in the assay on Malme-3M, 14.9 µM (inactive); in the assay with RPMI-8226 it was 17.1 µM (inactive); in the assay with RXF 393 it was 16.6 µM (inactive). Also, the GI50 in the assay on SF-539 was 20.5 µM (inactive); in the assay on SK-MEL-28, 19.7 µM (inactive); in the assay on SK-OV-3 it was 29.2 µM (inactive); with SN12C, 18.4 µM (inactive); in the assay with T47D, 13.7 µM (inactive); with TK-10 it was 54.2 µM (inactive). The GI50 was 17.1 µM (inactive) with U-251 and 15.1 µM (inactive) in the assay with UACC-62.
Consider `CC(=O)Nc1ccc(C2SCc3nc4ccccc4n32)cc1` (stereo not given), for which the GI50 was 56.8 µM (inactive) with 786-0; > 100 µM (inactive) with A549; > 35.7 µM (inactive) in the assay with BT-549; > 100 µM (inactive) in the assay with CCRF-CEM; > 100 µM (inactive) in the assay with COLO 205; > 100 µM (inactive) with DU-145. The GI50 with HCT-15 was 47.3 µM; with IGROV-1, > 91 µM (inactive); with MCF7, 57 µM (inactive); with Malme-3M, 34.7 µM (inactive); in the assay on RPMI-8226 it was 47.6 µM (inactive); in the assay with RXF 393, > 100 µM (inactive). Besides, the GI50 is > 100 µM (inactive) in the assay with SF-539; > 100 µM (inactive) with SK-MEL-28; > 100 µM (inactive) with SK-OV-3; > 100 µM (inactive) in the assay with SN12C; 48.9 µM (inactive) in the assay on T47D; 22.6 µM (inactive) in the assay with TK-10. Moreover, the GI50 in the assay with U-251 is 73.3 µM (inactive); in the assay with UACC-62, > 100 µM (inactive).
For `Nc1nnc(-c2ccco2)c(-c2ccco2)n1`, the GI50 with 786-0, in the assay with A549, in the assay on BT-549, in the assay on CCRF-CEM, in the assay with COLO 205 and with DU-145 was > 100 µM (inactive) each time. Moreover, the GI50 in the assay with HCT-15 is > 100 µM; in the assay with IGROV-1, > 100 µM (inactive); in the assay on MCF7 it was > 100 µM (inactive); in the assay with Malme-3M, > 100 µM (inactive); in the assay with RPMI-8226, > 100 µM (inactive); in the assay on RXF 393, > 100 µM (inactive). Moreover, the GI50 in the assay on SF-539, in the assay on SK-MEL-28, in the assay with SK-OV-3, in the assay with SN12C, in the assay with T47D and with TK-10 was > 100 µM (inactive) throughout. In addition, the GI50 in the assay with U-251 and in the assay with UACC-62 was > 100 µM (inactive) throughout.
Turning to `COC(=O)C1=C(C(=O)OC)C2(C)CCC(=O)C1O2` (stereo not given), the GI50 in the assay on 786-0, in the assay with A549, with BT-549, with CCRF-CEM, in the assay on COLO 205 and in the assay on DU-145 was > 10 µM (inactive) throughout. In addition, the GI50 is > 10 µM in the assay on HCT-15; > 10 µM (inactive) in the assay with IGROV-1; > 10 µM (inactive) in the assay on MCF7; > 10 µM (inactive) in the assay on Malme-3M; > 10 µM (inactive) in the assay with RPMI-8226; > 10 µM (inactive) in the assay on RXF 393. Moreover, the GI50 in the assay with SF-539, in the assay on SK-MEL-28, with SK-OV-3, in the assay with SN12C, in the assay on T47D and in the assay with TK-10 was > 10 µM (inactive) each time. Also, the GI50 with U-251 and with UACC-62 was > 10 µM (inactive) throughout.
Take `CC1(C)CCC2(C(=O)OC3OC(CO)C(O)C(O)C3O)CCC3(C)C(=CCC4C5(C)CCC(OC6OC(CO)C(O)C(O)C6O)C(C)(C)C5CCC43C)C2C1` (stereo not given): the GI50 was 17.3 µM (inactive) in the assay on 786-0; > 25 µM (inactive) with A549; 9.44 µM (inactive) in the assay with BT-549; 4.51 µM (inactive) in the assay on CCRF-CEM; 8.04 µM (inactive) in the assay with COLO 205; > 25 µM (inactive) in the assay with DU-145. For the same compound, the GI50 in the assay with HCT-15 was > 25 µM; in the assay with IGROV-1 it was 14.1 µM (inactive); with MCF7 it was 8 µM (inactive); with Malme-3M, 9.77 µM (inactive); with RPMI-8226 it was 4.18 µM (inactive); with RXF 393 it was > 25 µM (inactive). Besides, the GI50 is 5.4 µM (inactive) in the assay on SF-539; 6.93 µM (inactive) in the assay with SK-MEL-28; > 25 µM (inactive) in the assay with SK-OV-3; 10.9 µM (inactive) with SN12C; 6.4 µM (inactive) with T47D; > 25 µM (inactive) in the assay with TK-10. The GI50 with U-251 was 4.49 µM (inactive); with UACC-62, 8.67 µM (inactive).
For `O=C1CCc2ccc(O)c(c2)Oc2ccc(cc2)C(Sc2ccccc2)CCO1` (stereo not given), the GI50 in the assay with 786-0 was 16 µM (inactive); in the assay with A549, 18.6 µM (inactive); in the assay on BT-549, 14.4 µM (inactive); in the assay with CCRF-CEM, 10.8 µM (inactive); in the assay with COLO 205, 17.3 µM (inactive); in the assay with DU-145, 17.8 µM (inactive). In addition, the GI50 was 13.7 µM in the assay on HCT-15; 13.3 µM (inactive) in the assay on IGROV-1; 12.1 µM (inactive) with MCF7; 13.9 µM (inactive) in the assay with Malme-3M; 13.5 µM (inactive) with RPMI-8226; 17.8 µM (inactive) in the assay with RXF 393. Further, the GI50 in the assay with SF-539 is 15.8 µM (inactive); with SK-MEL-28, 15.4 µM (inactive); in the assay on SK-OV-3, 34.3 µM (inactive); in the assay on SN12C, 15.8 µM (inactive); in the assay with T47D, 7.74 µM (inactive); in the assay on TK-10 it was 16 µM (inactive). The GI50 with U-251 was 16 µM (inactive); with UACC-62, 15.1 µM (inactive).

The values above are taken from ChEMBL document CHEMBL1201862, “PubChem BioAssay data set” (2004).
